Source: ChEMBL document CHEMBL1156829 (Proc Natl Acad Sci U S A, 2008)

Assays:
[1] = NOVARTIS: Cytotoxicity against human hepatocellular carcinoma cell line (Huh7); format: toxicity, cell-based, Huh-7; details: Huh7 cells (hepatocellular carcinoma cell line)
Plasmodium falciparum [2] = experiment: NOVARTIS: Inhibition of Plasmodium falciparum 3D7 (drug-susceptible) proliferation in erythrocyte-based infection assay; format: functional, organism-based; details: Plasmodium falciparum, 3D7
Plasmodium falciparum [3] = experiment: NOVARTIS: Inhibition of Plasmodium falciparum W2 (drug-resistant) proliferation in erythrocyte-based infection assay; format: functional, organism-based; details: Plasmodium falciparum, W2; read-out: EC50

| Structure (SMILES) | CC50 [1] [nM] | EC50 (Plasmodium falciparum [2]) [nM] | EC50 (Plasmodium falciparum [3]) [nM] |
| --- | --- | --- | --- |
| Nc1nc(Nc2cccc(Cl)c2)n[nH]1 | > 100000 | 1680 | 958 |
| CCN1CCN(c2ccc(Nc3c4ccccc4nc4ccccc34)cc2)CC1 | 17400 | 50.7 | 160 |
| Cc1ccc(-c2cc3c(nn2)-c2ccccc2C3=O)cc1 | 83200 | 2000 | 799 |
| N=C(N)c1ccc(OCCCOc2ccc(C(=N)N)cc2)cc1 | > 6250 | 75.5 | 59.5 |
| COc1ccc(C(NC(=O)COc2ccccc2)c2cc(Cl)c3cccnc3c2O)cc1 (stereo not given) | > 100000 | 3570 | 918 |
| CCn1c2c(c(=N)c3ccccc31)CCC2 | > 100000 | 341 | 954 |
| C(=NNc1nc2ccccc2[nH]1)c1cccc(Oc2ccccc2)c1 | > 100000 | 302 | 962 |
| CN(C)c1ccc(/C=C/c2nc(=O)c3ccccc3o2)cc1 | > 10000 | 130 | 93.6 |
| COc1cc2cc(C(=O)Nc3ccccc3)c(N)nc2cc1OC | > 100000 | 409 | 964 |
| O=C(Nc1ccc(-c2nc3ccccc3[nH]2)cc1)c1ccc(-c2cccc([N+](=O)[O-])c2)o1 | > 100000 | 2240 | 924 |
| Cc1cc(OC(C)C(=O)N2CCc3ccccc32)ccc1Cl (stereo not given) | > 100000 | 897 | 926 |
| O=[N+]([O-])c1ccc(-c2ccc(C=NNc3nc(Nc4ccccc4)nc(Nc4ccccc4)n3)o2)cc1 | > 100000 | 875 | 933 |
| Cc1cccn2c(NCc3ccccc3)c(-c3ccccc3OC(=O)C(C)Cl)nc12 (stereo not given) | > 100000 | 764 | 925 |
| Cc1ccn2c(NC(C)(C)CC(C)(C)C)c(-c3ccccc3OC(=O)c3ccc(Cl)cc3)nc2c1 | > 8270 | 1210 | 77.8 |
| COc1cc(C=C(C#N)c2nc3ccccc3[nH]2)ccc1OCc1ccccc1F | > 100000 | 1380 | 937 |
| Cc1ccc2cc(C)c(Nc3ccc(Cl)cc3)nc2c1 | 61000 | 426 | 570 |
| Cn1nc(C(=O)NCc2ccccc2)c2c1CCN(Cc1cccc(O)c1)C2 | > 100000 | > 6500 | 935 |
| CN(C)CCCNc1ncnc2c1[nH]c1ccccc12 | > 100000 | 233 | 934 |
| Oc1ccc(Br)cc1C=NNc1nc2ccccc2[nH]1 | 54000 | 536 | 504 |
| N#Cc1c(-c2ccccc2)cc(N2CCN(C3CCCCC3)CC2)n2c1nc1ccccc12 | > 100000 | 234 | 932 |
| COc1ccc(C2C(C(=O)Nc3cccc(Cl)c3)c3ccccc3C(=O)N2C2CCCCC2)cc1 (stereo not given) | > 100000 | 1550 | 930 |
| CCN1CCC(N2CCC(n3c(Cc4ccccc4OC)nc4cc(F)ccc43)CC2)CC1 | 37700 | 413 | 350 |
| C=CCc1cccc(C=NNc2nc3ccccc3[nH]2)c1O | > 100000 | 657 | 928 |
| OC(CN1CCOCC1)Cn1c2ccc(Br)cc2c2cc(Br)ccc21 (stereo not given) | 47400 | 991 | 440 |
| Cc1ccc(Cn2c(C)c3cnn(CC(=O)O)c(=O)c3c2C)cc1 | > 100000 | > 9010 | 928 |

| Structure (SMILES) | CC50 [1] [nM] | EC50 (Plasmodium falciparum [2]) [nM] | EC50 (Plasmodium falciparum [3]) [nM] |
| --- | --- | --- | --- |
| O=C(Cn1c2ccccc2c(=O)c2ccccc21)Nc1ccc(Cl)cc1C(=O)c1ccccc1 | > 100000 | 817 | 925 |
| CN(C)CCCN(Cc1cc2cc3c(cc2[nH]c1=O)OCO3)C(=S)Nc1cccc(Cl)c1 | > 100000 | 978 | 918 |
| C=C[C@H]1CN2CC[C@H]1C[C@@H]2[C@@H](OC(=O)CCCCl)c1ccnc2ccccc12 | > 10000 | 49 | 96.8 |
| COc1cccc(C2C(C(=O)Nc3ccccc3)=C(C)N=c3sc(=Cc4c[nH]c5ccccc45)c(=O)n32)c1 (stereo not given) | > 100000 | 2470 | 964 |
| CC(=O)N(C1=C(N2CCOCC2)C(=O)c2ccccc2C1=O)c1ccc(C(C)C)c(C)c1 | 9150 | 25.6 | 88.1 |
| COc1ccc(/C=C/C(=O)NC(=O)c2ccccc2O)cc1 | > 10000 | 118 | 92.1 |
| Cc1cc(N2CCN(CC=Cc3ccccc3)CC2)n2c(nc3ccccc32)c1C#N | > 100000 | 657 | 942 |
| COc1ccc(C2C(C(=O)Nc3cnc4ccccc4c3)c3ccccc3C(=O)N2Cc2ccc(F)cc2)cc1 (stereo not given) | > 100000 | 2170 | 941 |
| CCN(CC)CCN(Cc1cc2c(C)cc(C)cc2[nH]c1=O)C(=S)NCCCN(C)C | > 76300 | 1850 | 723 |
| COc1cncc(-c2cncc(N3CCN(c4ccncc4)CC3)n2)c1 | > 10000 | 80.4 | 94.7 |
| COc1ccc(C(=O)NC(c2ccccc2Cl)c2cc(Cl)c3cccnc3c2O)cc1 (stereo not given) | > 87000 | 2370 | 833 |
| CCCCNC(=O)C1CCC(CN(Cc2c(Cl)cccc2Cl)S(=O)(=O)c2ccc(Br)cc2)CC1 (stereo not given) | > 100000 | 546 | 916 |
| Cc1c(/C=C2\SC(=Nc3ccccc3F)N(C3CCCCC3)C2=O)c2ccccc2n1CC(N)=O | > 100000 | 301 | 961 |
| O=C(CC1N=C2c3ccccc3N=C(SCc3cccc(F)c3)N2C1=O)NCc1cccs1 (stereo not given) | > 100000 | 1190 | 960 |
| Cc1cc(Cl)ccc1NC(=O)c1ccccc1[N+](=O)[O-] | > 100000 | 2070 | 930 |
| COc1ccc(N2C(=O)C3C(C2=O)C2(c4ccccc4)C(=O)C3(c3ccccc3)C(c3ccc4c(c3)OCO4)=C2c2ccc3c(c2)OCO3)c([N+](=O)[O-])c1 (stereo not given) | > 100000 | 1160 | 938 |
| CCCCCCCCCCCC(=O)Oc1ccccc1-c1nc2ccccn2c1NC(C)(C)CC(C)(C)C | > 10000 | 1260 | 93.6 |
| COc1ccc(OCC(=O)Nc2cccc(-c3nc4ncccc4o3)c2)cc1 | > 100000 | 1470 | 935 |
| CCCCCc1ccc(C(=O)Oc2ccccc2-c2nc3cc(C)ccn3c2NC(C)(C)CC(C)(C)C)cc1 | > 10000 | 739 | 93.4 |
| CCSc1nc2sc3c(c2c(=O)n1CC)CCN(C)C3 | > 100000 | 1410 | 923 |
| Cc1cccc(N2CCN(c3nc4ccccc4c4nnc(C)n34)CC2)c1C | > 100000 | 4400 | 943 |
| Cc1ccc(NC(=O)C2CSC(c3cccc(F)c3)N2C(=O)c2ccc(C(C)(C)C)cc2)cc1C (stereo not given) | 848 | 604 | 8 |
| COc1ccc(NC(=O)C2=C(C)Nc3c(C(=O)Nc4ccc(C)cc4)cnn3C2c2cccc(Cl)c2)cc1 (stereo not given) | > 100000 | 2510 | 924 |
| CCNC(=O)NCCSc1nc(-c2ccccc2)c(-c2ccccc2)n1CC | > 100000 | 1630 | 917 |
| CCCCN(CCCC)S(=O)(=O)c1ccc(NC(=O)c2ccco2)cc1 | > 65700 | 1420 | 637 |
